Measurements taken from the supplement of paper PMC10307832.

Columns and labels:
Test in all cases: relative viability (nuclei count vs DMSO), 5 days (fraction); higher = more cells survive
[1] = compound: COc1cccc2cc(-c3nc([C@H]4CC[C@H](C(=O)O)CC4)n4ncnc(N)c34)[nH]c12 [OSI-027] + Nc1nc2[nH]cc(CCc3ccc(C(=O)N[C@@H](CCC(=O)O)C(=O)O)cc3)c2c(=O)[nH]1 [Pemetrexed] (partner 0.2 µM)
How it was run: (§1)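 Medians of duplicate plates are given as relative viability. That measure is the nuclei count in treated wells divided by the count in vehicle wells. Counts were taken on 4× images of lung cancer cell lines in 1536-well plates, 5 days after pin-tool dosing the day after seeding with one drug alone or a fixed anchor-drug dose plus five library-drug doses (not always all listed) in √10 steps.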

[2] = compound: Cc1nc(NC(=O)N2CCC[C@H]2C(N)=O)sc1-c1ccnc(C(C)(C)C(F)(F)F)c1 [Alpelisib] + CC(=O)Nc1cccc(-n2c(=O)n(C3CC3)c(=O)c3c(Nc4ccc(I)cc4F)n(C)c(=O)c(C)c32)c1 [Trametinib] (partner 0.02 µM)
How it was run: as §1

[3] = compound: Cc1nc(NC(=O)N2CCC[C@H]2C(N)=O)sc1-c1ccnc(C(C)(C)C(F)(F)F)c1 [Alpelisib] + COc1cc2c(Oc3ccc(NC(=O)C4(C(=O)Nc5ccc(F)cc5)CC4)cc3F)ccnc2cc1OCCCN1CCOCC1 [Foretinib] (partner 0.25 µM)
How it was run: as §1

[4] = compound: CCCS(=O)(=O)Nc1ccc(F)c(C(=O)c2c[nH]c3ncc(-c4ccc(Cl)cc4)cc23)c1F [Vemurafenib] + COc1cccc2cc(-c3nc([C@H]4CC[C@H](C(=O)O)CC4)n4ncnc(N)c34)[nH]c12 [OSI-027] (partner 0.5 µM)
How it was run: as §1

Cell Line | relative viability ([1]; first compound 0.01 µM) | relative viability ([1]; first compound 0.03162 µM) | relative viability ([1]; first compound 0.1 µM) | relative viability ([1]; first compound 0.3162 µM) | relative viability ([1]; first compound 1 µM) | relative viability ([2]; first compound 0.04 µM) | relative viability ([2]; first compound 0.1265 µM) | relative viability ([2]; first compound 0.4 µM) | relative viability ([2]; first compound 1.265 µM) | relative viability ([2]; first compound 4 µM) | relative viability ([3]; first compound 0.04 µM) | relative viability ([3]; first compound 0.1265 µM) | relative viability ([3]; first compound 0.4 µM) | relative viability ([3]; first compound 1.265 µM) | relative viability ([3]; first compound 4 µM) | relative viability ([4]; first compound 0.03162 µM) | relative viability ([4]; first compound 0.1 µM) | relative viability ([4]; first compound 0.3162 µM) | relative viability ([4]; first compound 1 µM)
NCI-H2342 | 0.755 | 0.818 | 0.752 | 0.697 | 0.5 | 0.754 | 0.854 | 0.671 | 0.604 | 0.67 | 1.01 | 1.08 | 1.07 | 0.767 | 0.753 | 0.621 | 0.561 | 0.577 | 0.643
NCI-H2347 | 0.438 | 0.439 | 0.484 | 0.404 | 0.427 | 0.29 | 0.285 | 0.394 | 0.244 | 0.232 | 0.777 | 0.98 | 0.88 | 0.647 | 0.701 | 0.436 | 0.37 | 0.577 | 0.367
NCI-H2405 | 0.854 | 1.01 | 0.922 | 0.85 | 0.448 | 0.509 | 0.641 | 0.549 | 0.369 | 0.381 | 1.1 | 1 | 1.1 | 0.849 | 0.711 | 0.611 | 0.637 |  | 0.621
NCI-H3122 | 0.207 | 0.198 | 0.19 | 0.207 | 0.243 | 0.201 | 0.221 | 0.172 | 0.181 | 0.136 | 1.02 | 0.884 | 0.987 | 0.867 | 0.821 | 0.932 | 0.893 | 1.04 | 0.899
PC-3 [JPC-3] | 0.464 | 1.1 | 0.775 | 0.84 | 0.785 | 0.704 | 0.602 | 0.685 | 0.655 | 0.578 | 1.08 | 1 | 1.07 | 0.987 | 0.971 | 0.698 |  | 0.724 | 0.731
PC-14 | 0.136 | 0.149 | 0.149 | 0.139 | 0.191 | 0.735 | 0.686 | 0.62 | 0.292 | 0.709 | 0.914 | 1.01 | 0.977 | 0.807 | 0.832 | 0.822 |  | 0.741 | 0.767
RERF-LC-KJ | 0.466 | 0.48 | 0.464 | 0.463 | 0.375 | 0.86 | 0.933 | 0.895 | 0.645 | 0.693 | 0.779 | 0.773 | 0.893 | 0.716 | 0.696 | 0.651 | 0.454 | 0.533 | 0.632
SK-LU-1 | 1.02 | 1.03 | 0.869 | 0.689 | 0.385 | 0.474 | 0.566 | 0.53 | 0.392 | 0.345 | 0.831 | 0.796 | 0.854 | 0.453 | 0.681 | 0.315 | 0.342 | 0.245 | 0.269
SK-MES-1 | 0.998 | 0.919 | 0.866 | 0.782 | 0.359 | 0.59 | 0.523 | 0.534 | 0.334 | 0.385 | 0.799 | 0.864 | 0.904 | 0.809 | 0.525 | 0.56 | 0.456 | 0.548 | 0.444
SW 900 | 0.368 | 0.56 | 0.477 | 0.508 | 0.406 | 0.733 |  | 1.11 | 0.761 | 0.745 | 1.22 | 0.991 | 0.79 | 0.885 | 0.843 | 0.527 | 0.545 | 0.535 | 0.433
SW 1573 | 0.817 | 0.982 | 0.852 | 0.771 | 0.343 | 0.562 | 0.586 | 0.553 | 0.363 | 0.388 | 0.854 | 0.713 | 0.823 | 0.696 | 0.724 | 0.582 | 0.591 | 0.564 | 0.464
